From ChEMBL document CHEMBL4421722, “Inhibitors of protein prenyltransferases” (2013)
Activity calls are given as the source filed them. The rule behind the calls is not given here.

Tests used:
[1] = system: HEK293; experiment: Inhibition of geranylgeranyltransferase type I in HEK293 cells expressing Myc-HA-tagged Rheb-WT assessed as effect on unprenylated Rap1 accumulation at 5 to 20 uM incubated for 48 hrs by SDS-PAGE and immunoblot analysis; type: cell-based; conditions: Homo sapiens
[2] = Inhibition of rat recombinant geranylgeranyltransferase type I expressed in Escherichia coli assessed as reduction in geranylgeranylation of RhoA incubated for 30 mins in presence of [3H]GGPP by scintillation counting assay relative to control
[3] = molecular target: T1, Geranylgeranyl transferase type-2 (Homo sapiens) (UniProt P53611+Q92696); experiment: Inhibition of RabGGTase in HEK293 cells assessed as reduction in geranylgeranylation of Rab5b protein at 5 to 20 uM incubated for 48 hrs by SDS-PAGE and immunoblot analysis; type: cell-based
[4] = molecular target: T1, Geranylgeranyl transferase type-2 (Homo sapiens); experiment: Inhibition of RabGGTase in HEK293 cells assessed as reduction in geranylgeranylation of Rab5b protein at 20 uM incubated for 48 hrs by SDS-PAGE and immunoblot analysis; type: cell-based
[5] = molecular target: Protein farnesyltransferase (Homo sapiens) (UniProt P49354+P49356); experiment: Inhibition of FTase in HEK293 cells assessed as reduction in H-ras farnesylation at […] 10 uM incubated for 48 hrs by SDS-PAGE and immunoblot analysis; type: cell-based
[6] = molecular target: T2, Geranylgeranyl transferase type-2 (Homo sapiens, UniProt P53611+Q92696); experiment: Competitive type inhibition of RabGGTase (unknown origin) using varying Rab7 as substrate protein and fixed [3H]geranylgeranyl pyrophosphate incubated for 20 mins by scintillation counting assay; type: protein-complex assay
T2 sequence (P53611 whole entry): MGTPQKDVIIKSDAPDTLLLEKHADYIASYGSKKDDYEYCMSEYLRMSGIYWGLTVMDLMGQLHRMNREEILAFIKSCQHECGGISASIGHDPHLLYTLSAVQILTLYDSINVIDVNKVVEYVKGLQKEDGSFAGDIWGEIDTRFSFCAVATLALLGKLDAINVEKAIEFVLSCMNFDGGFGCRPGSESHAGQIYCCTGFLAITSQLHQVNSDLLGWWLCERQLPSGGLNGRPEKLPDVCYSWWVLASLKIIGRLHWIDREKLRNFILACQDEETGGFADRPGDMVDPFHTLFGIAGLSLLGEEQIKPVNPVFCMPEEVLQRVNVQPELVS
T2 sequence (Q92696 whole entry): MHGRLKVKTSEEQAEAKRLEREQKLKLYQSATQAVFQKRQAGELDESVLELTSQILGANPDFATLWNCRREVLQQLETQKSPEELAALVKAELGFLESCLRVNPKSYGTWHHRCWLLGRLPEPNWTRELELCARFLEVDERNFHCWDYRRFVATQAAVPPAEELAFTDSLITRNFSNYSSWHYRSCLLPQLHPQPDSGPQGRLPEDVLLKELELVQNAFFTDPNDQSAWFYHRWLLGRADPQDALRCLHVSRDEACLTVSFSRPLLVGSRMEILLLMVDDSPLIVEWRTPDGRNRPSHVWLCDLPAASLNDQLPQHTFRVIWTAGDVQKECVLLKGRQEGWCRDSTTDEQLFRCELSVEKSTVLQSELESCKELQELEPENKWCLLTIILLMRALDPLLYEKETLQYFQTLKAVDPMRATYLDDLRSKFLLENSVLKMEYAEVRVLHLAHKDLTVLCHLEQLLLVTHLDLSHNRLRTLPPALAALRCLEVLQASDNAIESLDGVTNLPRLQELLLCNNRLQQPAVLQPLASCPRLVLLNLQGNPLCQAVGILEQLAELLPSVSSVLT

[7] = molecular target: T2, Geranylgeranyl transferase type-2; experiment: Inhibition of RabGGTase (unknown origin) using YPTI as substrate protein and [3H]geranylgeranyl pyrophosphate incubated for 20 mins by scintillation counting assay; type: protein-complex assay
[8] = molecular target: T1, Geranylgeranyl transferase type-2 (Homo sapiens); experiment: Inhibition of RabGGTase in HEK293 cells assessed as increase in Rab5b protein in soluble fraction at 5 to 20 uM incubated for 48 hrs by SDS-PAGE and immunoblot analysis; type: cell-based
[9] = molecular target: Protein farnesyltransferase (Rattus norvegicus, UniProt Q02293+Q04631); experiment: Inhibition of rat recombinant FTase alpha/beta expressed in Escherichia coli using K-Ras4B as a substrate as and [3H]farnesyl pyrophosphate incubated for 30 mins by scintillation counting assay
[10] = molecular target: T1, Geranylgeranyl transferase type-2 (Homo sapiens); experiment: Uncompetitive type inhibition of RabGGTase (unknown origin) using fixed Rab7 as substrate protein and varying [3H]geranylgeranyl pyrophosphate incubated for 20 mins by scintillation counting assay; type: protein-complex assay

IC50 [2]: > 50000 nM | inhibition [3]: Active | inhibition [4]: Active | inhibition [5]: inactive | Ki [6]: 1360 nM | IC50 [7]: 2100 nM | inhibition [8]: Active | IC50 [9]: > 100000 nM | inhibition [10]: Active
SMILES: CCCCCCS[C@H]1[C@@H](C(=O)O)[C@H](c2ccc(Br)cc2)N(S(=O)(=O)c2ccc(C)cc2)[C@@H]1CCC
inhibition [1]: inactive
